# Read-outs that look alike come from different tables or passages of the source.
# Columns and labels:
# [1] = tested on: equine infectious anemia virus (EIAV); assay: EIAV replication / infection in cells; type: cell-based
# [2] = tested on: Spleen Focus Forming Virus (SFFV); assay: Inhibition of disease induction in vivo by SFFV, IV or IP; parameters: species or system NFS mice; conditions: CPT 20 mg/kg; for # diseased mice (diseased/injected) / AVG. spleen WT.: 4 weeks
# Method: Inhibition of Disease Induction In Vivo by Spleen Focus Forming Virus (SFFV) by Intravenous or Intraperitoneal Infection of CPT. In a repeat and extension of the previous experiment, NFS mice were injected either intraperitoneally or intravenously with dilutions of infectious virus stock in the presence or absence of CPT. Virus was mixed with stocks of CPT dissolved in DMSO at 10 mg/ml and adjusted so that mice were treated at 20 mg/kg. In samples without CPT, DMSO was added to an equivalent concentration (9.6%). In both IP and IV injections, 0.5ml was injected per mouse. Animals were monitored and sacrificed 4 weeks after injection. Spleens were weighed, and a spleen weight in excess of 0.2 gm was judged positive for SFFV disease.
# Moloney MuLV = Moloney MuLV replication in vitro; type: cell-based, Moloney murine leukemia virus
# [3] = tested on: HIV-IIIB (HIV-1) replication in H9 cells; assay: HIV replication in cocultivation of H9/HIV-IIIB chronically infected cells with H9 cells; type: cell-based
# Method: 10 H9/HIV-IIIB (A,D), 100 H9/HIV-IIIB (B,E) or 1000 H9/HIV-IIIB cells (C,F) were cocultivated with 10^5 H9 cells in the presence or absence of 0.01 μM (A,B), 0.2 μM (C) , 0.005 μM (D,E), or 0,005-0.01 μM (F) of CPT for 1 h (A,B,C) or 18h (D,E,F). RT activity was measured in the culture media 7,8, and 9 days post-infection and treatment.
# Cocultivation of H9/HIV-IIIB Cells with Uninfected H9 Cells and CPT Treatment: Ten, 100 or 1,000 H9/HIV-IIIB cells were cocultivated with 10^5 H9 cells in the presence or absence of different CPT doses. Cells were incubated for 1 h at 37° C., pelleted, washed and resuspended in fresh media. RT activity in the culture media was measured seven, eight, and nine days after infections, as described above.
# For a longer treatment period, H9/HIV-IIIB cells were cocultivated with H9 cells in the presence or absence of 0.005-0.01 μM CPT for 18 h at 37° C.
# CPT Inhibition of HIV Replication in Cocultivation of H9/HIV-IIIB Chronically Infected Cells with H9 Uninfected Cells. Since it is likely that HIV infection in vivo involves cell to cell contact and virus production by previously infected cells, the ability of CPT to block the spread of HIV in uninfected H9 cells cocultivated with cells chronically infected with HIV was examined. The results shown in FIG. 2A indicate that 100% inhibition of HIV replication was observed when 10 infected cells were mixed with uninfected cells in the presence of 0.01 μM CPT for 1 h. […] However, increasing the CPT dose to 0.2 μM reduced HIV replication to 15% of control values when 1000 infected cells were mixed with 10^5 uninfected H9 cells (FIG. 2C).
# viral associated topo I = assay: Inhibition of viral associated topo I activity; type: biochemical
# [4] = tested on: Friend virus/spleen focus forming virus (SFFV); assay: Inhibition of Friend virus disease in mice (spleen weight, IP); type: in vivo, male NFS mice; conditions: for Number Friend disease positive (spleen weight >0.2 g) / Spleen weight AVG.: 4 weeks
# Source text: INHIBITION OF FRIEND VIRUS DISEASE IN MICE BY CAMPTOTHECIN. […] The Friend virus/spleen focus forming virus (SFFV) mouse model was used to test CPT in vivo. SFFV is a defective type C retrovirus which induces the rapid onset of erythroleukemia, characterized by severe splenomegaly, and death of the affected animal within 3-6 weeks after innoculation. A well characterized stock of SFFV, in complex with an amphotropic murine C-type virus which induced only a low incidence of lymphoid and myloid disease after a long latency, was injected into adult mice at viral dilutions which would be expected to induce Friend erythroleukemia in essentially 100% of infected mice.
# Male NFS mice were injected IP with 0.5 ml of virus stock to which CPT, disolved in DMSO, was added. The average weight of a mouse was 24 g, and CPT was added from a stock at 10 mg/ml. DMSO was added to A, E and I viral inoculum at 2.8%, the maximum level. Animals were sacrificed 4 weeks after inoculation, and spleens were weighed to determine the incidence of Friend virus induced splenomegaly.
# [5] = tested on: experimental tumors and human colon cancer; conditions: cited from earlier work
# [6] = group B, virus dil. 1/500, CPT 5 mg/kg IP
# [7] = group C, virus dil. 1/500, CPT 10 mg/kg IP
# [8] = group D, virus dil. 1/500, CPT 20 mg/kg IP
# [9] = group F, virus dil. 1/2000, CPT 5 mg/kg IP
# [10] = group G, virus dil. 1/2000, CPT 10 mg/kg IP
# [11] = group H, virus dil. 1/2000, CPT 20 mg/kg IP
# [12] = group J, no virus, CPT 5 mg/kg IP
# [13] = group K, no virus, CPT 10 mg/kg IP
# [14] = group L, no virus, CPT 20 mg/kg IP
smiles,measurement,setting,value
"CC[C@@]1(O)C(=O)OCc2c1cc1n(c2=O)Cc2cc3ccccc3nc2-1 [CPT, Camptothecin]",inhibiting the initiation of infection by EIAV,[1]; cell culture,has been demonstrated
same,EIAV replication,[1]; chronically-infected cells,inhibits equine infectious anemia virus (EIAV) replication in chronically-infected cells
same,# diseased mice (diseased/injected),"[2]; no virus, IP",0/5
same,AVG. spleen WT.,"[2]; no virus, IP",0.10 g
same,# diseased mice (diseased/injected),"[2]; no virus, IV",0/5
same,AVG. spleen WT.,"[2]; no virus, IV",0.10 g
same,injected mice died within 24 hours of causes unrelated to viral disease,"[2]; virus 1/500, IP",4/5
same,# diseased mice (diseased/injected),"[2]; virus 1/500, IP",0/1
same,AVG. spleen WT.,"[2]; virus 1/500, IP",0.20 g
same,# diseased mice (diseased/injected),"[2]; virus 1/500, IV",0/5
same,AVG. spleen WT.,"[2]; virus 1/500, IV",0.10 g
same,injected mice died within 24 hours of causes unrelated to viral disease,"[2]; virus 1/1000, IP",3/5
same,# diseased mice (diseased/injected),"[2]; virus 1/1000, IP",0/2
same,AVG. spleen WT.,"[2]; virus 1/1000, IP",0.15 g
same,# diseased mice (diseased/injected),"[2]; virus 1/1000, IV",0/5
same,AVG. spleen WT.,"[2]; virus 1/1000, IV",0.12 g
same,inhibiting the initiation of infection by Moloney MuLV,Moloney MuLV; cell culture,has been demonstrated
same,Moloney MuLV replication,Moloney MuLV; in vitro,inhibits Moloney MuLV replication in vitro
same,activity at 0.2 µM,"[3]; Human immunodeficiency virus 1, IIIB, H9, 1 h, read-out: HIV replication reduced to % of control values",15%
same,inhibition at 0.01 µM,"[3]; Human immunodeficiency virus 1, IIIB, H9, 1 h, read-out: inhibition of HIV replication, 10 infected cells, 0.01 μM CPT, 1 h",100%
same,inhibition at 0.01 µM,"[3]; Human immunodeficiency virus 1, IIIB, H9, 1 h, read-out: inhibition of HIV replication, 100 infected cells, 0.01 μM CPT, 1 h",50%
same,inhibition at 0.01 µM,"[3]; Human immunodeficiency virus 1, IIIB, H9, 1 h, read-out: inhibition of HIV replication, 1000 infected cells, 0.01 μM CPT, 1 h (data not shown)",13%
same,inhibition at 0.005 µM,"[3]; Human immunodeficiency virus 1, IIIB, H9, 18 h, read-out: inhibition of HIV replication (RT activity), 10 or 100 infected cells, 0.005 μM CPT, 18 h, days 7, 8 and 9",98 to 100%
same,inhibitory effect on HIV replication,"[3]; larger numbers of infected cells, 0.2 μM CPT, or 0.005 μM for 18h",strong inhibitory effect on HIV replication
same,viral associated topo I activity,viral associated topo I,inhibited
same,Number Friend disease positive (spleen weight >0.2 g),[4]; [6],4/5
same,Spleen weight AVG.,[4]; [6],0.78 g
same,Number Friend disease positive (spleen weight >0.2 g),[4]; [7],3/5
same,Spleen weight AVG.,[4]; [7],0.84 g
same,Number Friend disease positive (spleen weight >0.2 g),[4]; [8],4/5
same,Spleen weight AVG.,[4]; [8],0.28 g
same,Number Friend disease positive (spleen weight >0.2 g),[4]; [9],1/5
same,Spleen weight AVG.,[4]; [9],0.22 g
same,Number Friend disease positive (spleen weight >0.2 g),[4]; [10],0/5
same,Spleen weight AVG.,[4]; [10],0.18 g
same,Number Friend disease positive (spleen weight >0.2 g),[4]; [11],1/5
same,Spleen weight AVG.,[4]; [11],0.22 g
same,Number Friend disease positive (spleen weight >0.2 g),[4]; [12],0/5
same,Spleen weight AVG.,[4]; [12],0.12 g
same,Number Friend disease positive (spleen weight >0.2 g),[4]; [13],0/5
same,Spleen weight AVG.,[4]; [13],0.10 g
same,Number Friend disease positive (spleen weight >0.2 g),[4]; [14],0/5
same,Spleen weight AVG.,[4]; [14],0.12 g
same,induction of erythroleukemia by SFFV,[4]; in vivo,blocks the induction of erythroleukemia by SFFV in vivo
same,effect on number of mice with enlarged spleens and average spleen weight,"[4]; vs control, virus infected mice",reduced the number of mice showing enlarged spleens and the average spleen weight
same,antitumor activity,[5],strong antitumor activity
